Here are results for 14 compounds from patent publication US8859569B2, “Substituted annellated pyrimidines and use thereof” (Bayer Pharma Aktiengesellschaft, priority 2011, dated 2014).

One assay deals with aorta rings. Kind of assay: Vessel-relaxing action in vitro (aorta rings, phenylephrine contraction). The following applies: concentration required to reduce phenylephrine-induced contraction of rabbit aorta rings by 50%. The procedure:
B-1. Vessel-relaxing Action in vitro
Rabbits are stunned with a blow on the back of the neck and exsanguinated. The aorta is removed, freed from adhering tissue, separated into rings with a width of 1.5 mm, and placed individually, with preloading, in 5-ml organ baths with carbogen-gassed Krebs-Henseleit solution at 37° C. with the following composition (mM in each case): sodium chloride: 119; potassium chloride: 4.8; calcium chloride dihydrate: 1; magnesium sulphate heptahydrate: 1.4; potassium dihydrogen phosphate: 1.2; sodium hydrogen carbonate: 25; glucose: 10. The contraction force is recorded with Statham UC2 cells, amplified and digitized via an A/D converter (DAS-1802 HC, Keithley Instruments Munich) and recorded in parallel on a continuous-line recorder. To produce contraction, phenylephrine is added to the bath cumulatively in increasing concentration. After several control cycles, the test substance is added in increasing dosage in each subsequent pass and the level of contraction is compared with the level of contraction reached in the immediately preceding pass. This is used for calculating the concentration that is required to reduce the level of the control value by 50% (IC50 value). The standard application volume is 5 μl, and the proportion of DMSO in the bath solution corresponds to 0.1%.

The target of assay [1] is T1, human phosphodiesterase 5 (PDE-5) (Homo sapiens, UniProt O76074).
T1 construct: PDE-5 preparations are obtained from human platelets by lysis; from tissue; host or cells: human platelets
Kind of assay: Inhibition of human phosphodiesterase 5 (PDE-5), SPA assay. The format is biochemical. The note with it: PDE-5 preparation from human platelets, [8-3H]cGMP substrate. In outline:
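Scintillation proximity read-out with yttrium beads after 60 min room-temperature hydrolysis of 0.025 μCi [8-3H]cGMP, pH 7.5 Tris/MgCl2/EDTA buffer. Enzyme is a human platelet PDE-5 fraction, diluted to keep substrate turnover below 70%. Test concentrations 4 μM–0.0018 μM final; IC50 from inhibition curves.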

The target of assay [2] is T2, recombinant guanylate cyclase reporter cell line (Rattus norvegicus, UniProt P19686+P20595).
T2 construct: expressed in transfected cells
T2 sequence (P20595 1-619): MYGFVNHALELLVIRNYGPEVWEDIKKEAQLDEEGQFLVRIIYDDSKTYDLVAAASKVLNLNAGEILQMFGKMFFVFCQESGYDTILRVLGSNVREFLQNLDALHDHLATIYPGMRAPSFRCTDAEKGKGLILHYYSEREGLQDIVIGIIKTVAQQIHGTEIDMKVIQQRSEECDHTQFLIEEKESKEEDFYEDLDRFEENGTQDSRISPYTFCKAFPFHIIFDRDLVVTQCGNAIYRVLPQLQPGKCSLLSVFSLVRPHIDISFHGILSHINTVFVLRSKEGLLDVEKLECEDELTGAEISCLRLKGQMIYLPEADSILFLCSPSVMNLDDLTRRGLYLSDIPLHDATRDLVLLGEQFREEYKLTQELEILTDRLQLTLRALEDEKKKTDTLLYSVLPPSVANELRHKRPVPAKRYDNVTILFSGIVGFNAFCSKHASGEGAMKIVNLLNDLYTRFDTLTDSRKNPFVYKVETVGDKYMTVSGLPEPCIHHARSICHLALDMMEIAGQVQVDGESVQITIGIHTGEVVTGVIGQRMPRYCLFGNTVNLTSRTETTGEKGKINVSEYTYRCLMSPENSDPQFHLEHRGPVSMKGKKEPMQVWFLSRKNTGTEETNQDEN
T2 sequence (P19686 1-690): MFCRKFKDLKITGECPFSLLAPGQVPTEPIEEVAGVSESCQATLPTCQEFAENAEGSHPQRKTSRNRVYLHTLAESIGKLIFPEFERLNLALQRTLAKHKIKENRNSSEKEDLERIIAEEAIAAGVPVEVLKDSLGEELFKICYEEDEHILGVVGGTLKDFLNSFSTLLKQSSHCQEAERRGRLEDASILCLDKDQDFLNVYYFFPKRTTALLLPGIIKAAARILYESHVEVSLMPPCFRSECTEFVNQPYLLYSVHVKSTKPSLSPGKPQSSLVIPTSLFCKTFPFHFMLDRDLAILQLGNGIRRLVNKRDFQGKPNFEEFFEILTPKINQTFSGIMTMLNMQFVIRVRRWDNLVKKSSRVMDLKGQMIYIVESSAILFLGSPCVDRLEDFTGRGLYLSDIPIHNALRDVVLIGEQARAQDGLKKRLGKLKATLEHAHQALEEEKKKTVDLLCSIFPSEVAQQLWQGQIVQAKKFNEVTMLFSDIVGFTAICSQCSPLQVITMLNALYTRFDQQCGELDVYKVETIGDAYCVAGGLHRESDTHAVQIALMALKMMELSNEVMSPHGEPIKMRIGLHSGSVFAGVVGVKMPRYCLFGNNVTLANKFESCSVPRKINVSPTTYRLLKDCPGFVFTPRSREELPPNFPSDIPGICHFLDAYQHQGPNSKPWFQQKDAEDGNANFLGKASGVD
Nature of the assay: Action on recombinant guanylate cyclase reporter cell line. It counts as cell-based. On the procedure: B-2. Action on Recombinant Guanylate Cyclase Reporter Cell Line
The cellular action of the compounds according to the invention is determined on a recombinant guanylate cyclase reporter cell line, as described in F. Wunder et al., Anal. Biochem. 339, 104-112 (2005).

`CC1(C)C(=O)Nc2nc(-c3nn(Cc4ccccc4F)c4ncccc34)nc(N3CCC(N)C3)c21` (racemic) [Example 106, 4-(3-Aminopyrrolidin-1-yl)-2-[1-(2-fluorobenzyl)-1H-pyrazolo[3,4-b]pyridin-3-yl]-5,5-dimethyl-5,7-dihydro-6H-pyrrolo[2,3-d]pyrimidin-6-one]: the IC50 was 1450 nM in the assay on aorta rings (Oryctolagus cuniculus) and 12 nM in assay [1]. Further, the “MEC (minimal effective concentration)” value in assay [2] is given as 1 μm.

`CC1(C)C(=O)Nc2nc(-c3nn(Cc4ccccc4F)c4ncc(F)cc34)nc(NCC(O)C(F)(F)F)c21` (single isomer, unassigned) [Example 96-1, 2-[5-Fluoro-1-(2-fluorobenzyl)-1H-pyrazolo[3,4-b]pyridin-3-yl]-5,5-dimethyl-4-[(3,3,3-trifluoro-2-hydroxypropyl)amino]-5,7-dihydro-6H-pyrrolo[2,3-d]pyrimidin-6-one]: the IC50 came to 1470 nM in the assay on aorta rings and 150 nM in assay [1]. Besides, the “MEC (minimal effective concentration)” value in assay [2] stood at 0.1 μm.

`CC1(C)C(=O)Nc2nc(-c3nn(Cc4ccccc4F)c4ncc(F)cc34)nc(NCC(O)C(F)(F)F)c21` (single isomer, unassigned) [Example 96-2, 2-[5-Fluoro-1-(2-fluorobenzyl)-1H-pyrazolo[3,4-b]pyridin-3-yl]-5,5-dimethyl-4-[(3,3,3-trifluoro-2-hydroxypropyl)amino]-5,7-dihydro-6H-pyrrolo[2,3-d]pyrimidin-6-one]: the IC50 in the assay on aorta rings came out at 601 nM; in assay [1], 26 nM. The “MEC (minimal effective concentration)” value in assay [2] is given as 0.01 μm.

As to `COc1nc(-c2nn(Cc3ccccc3F)c3ncccc23)nc2c1C(C)(C)C(=O)N2` [Example 1, 2-[1-(2-Fluorobenzyl)-1H-pyrazolo[3,4-b]pyridin-3-yl]-4-methoxy-5,5-dimethyl-5,7-dihydro-6H-pyrrolo[2,3-d]pyrimidin-6-one], the IC50 came to 114 nM in the assay on aorta rings (Oryctolagus cuniculus) and 140 nM in assay [1]. Further, the “MEC (minimal effective concentration)” value in assay [2] was determined as 0.1 μm.

For `CC1(C)C(=O)Nc2nc(-c3nn(Cc4ccccc4F)c4ncc(F)cc34)nc(NCCO)c21` [Example 2, 2-[5-Fluoro-1-(2-fluorobenzyl)-1H-pyrazolo[3,4-b]pyridin-3-yl]-4-[(2-hydroxyethyl)amino]-5,5-dimethyl-5,7-dihydro-6H-pyrrolo[2,3-d]pyrimidin-6-one], the IC50 is 54 nM with aorta rings (Oryctolagus cuniculus) and 8 nM in assay [1]. For the same compound, the “MEC (minimal effective concentration)” value in assay [2] is listed as 0.3 μm.

Regarding `CC(C)(N)CNc1nc(-c2nn(Cc3ccccc3F)c3ncc(F)cc23)nc2c1C(C)(C)C(=O)N2` [Example 3, 4-[(2-Amino-2-methylpropyl)amino]-2-[5-fluoro-1-(2-fluorobenzyl)-1H-pyrazolo[3,4-b]pyridin-3-yl]-5,5-dimethyl-5,7-dihydro-6H-pyrrolo[2,3-d]pyrimidin-6-one], the half-inhibitory concentration (IC50) is 469 nM in the assay on aorta rings (Oryctolagus cuniculus) and 46 nM in assay [1]. In addition, the “MEC (minimal effective concentration)” value in assay [2] worked out at 3.0 μm.

Regarding `CC1(C)C(=O)Nc2nc(-c3nn(Cc4ccccc4F)c4ncc(F)cc34)nc(NCC(N)C(F)(F)F)c21` (stereo not shown) [Example 6, 4-[(2-Amino-3,3,3-trifluoropropyl)amino]-2-[5-fluoro-1-(2-fluorobenzyl)-1H-pyrazolo[3,4-b]pyridin-3-yl]-5,5-dimethyl-5,7-dihydro-6H-pyrrolo[2,3-d]pyrimidin-6-one], the IC50 with aorta rings (Oryctolagus cuniculus) turned out to be 680 nM; in assay [1], 120 nM.

In assay [1], `CC1(C)C(=O)Nc2nc(-c3nn(Cc4ccccc4F)c4ncccc34)nc(NCc3ccccc3)c21` [Example 83, 4-(benzylamino)-2-[1-(2-fluorobenzyl)-1H-pyrazolo[3,4-b]pyridin-3-yl]-5,5-dimethyl-5,7-dihydro-6H-pyrrolo[2,3-d]pyrimidin-6-one] had an IC50 of 230 nM. For the same compound, the “MEC (minimal effective concentration)” value in assay [2] is reported as 0.03 μm.

In the case of `CC1(C)C(=O)Nc2nc(-c3nn(Cc4ccccc4F)c4ncccc34)nc(NCc3cccnc3)c21` [Example 84, 2-[1-(2-fluorobenzyl)-1H-pyrazolo[3,4-b]pyridin-3-yl]-5,5-dimethyl-4-[(pyridin-3-ylmethyl)amino]-5,7-dihydro-6H-pyrrolo[2,3-d]pyrimidin-6-one], in assay [1], the IC50 came to 19 nM. Also, the “MEC (minimal effective concentration)” value in assay [2] came to 0.1 μm.

`CC1(C)C(=O)Nc2nc(-c3nn(Cc4ccccc4F)c4ncccc34)nc(NCc3ccncc3)c21` [Example 85, 2-[1-(2-fluorobenzyl)-1H-pyrazolo[3,4-b]pyridin-3-yl]-5,5-dimethyl-4-[(pyridin-4-ylmethyl)amino]-5,7-dihydro-6H-pyrrolo[2,3-d]pyrimidin-6-one] returned an IC50 in assay [1] of 4.2 nM. The “MEC (minimal effective concentration)” value in assay [2] came out at 0.3 μm.

For `CC1(C)C(=O)Nc2nc(-c3nn(Cc4ccccc4F)c4ncccc34)nc(NC[C@H]3CCCO3)c21` [Example 86, 2-[1-(2-fluorobenzyl)-1H-pyrazolo[3,4-b]pyridin-3-yl]-5,5-dimethyl-4-[(tetrahydrofuran-2-ylmethyl)amino]-5,7-dihydro-6H-pyrrolo[2,3-d]pyrimidin-6-one], in assay [1], the IC50 was found to be 330 nM. Also, the “MEC (minimal effective concentration)” value in assay [2] is given as 0.01 μm.

Turning to `CC1(C)C(=O)Nc2nc(-c3nn(Cc4ccccc4F)c4ncccc34)nc(Nc3ccccc3)c21` [Example 87, 2-[1-(2-fluorobenzyl)-1H-pyrazolo[3,4-b]pyridin-3-yl]-5,5-dimethyl-4-(phenylamino)-5,7-dihydro-6H-pyrrolo[2,3-d]pyrimidin-6-one], the IC50 in assay [1] was found to be 210 nM. For the same compound, in assay [2], the “MEC (minimal effective concentration)” value came to 0.03 μm.

`CC1(C)C(=O)Nc2nc(-c3nn(Cc4cccc(F)c4F)c4ncc(F)cc34)nc(OCCC(F)(F)F)c21` [Example 110, 2-[1-(2,3-Difluorobenzyl)-5-fluoro-1H-pyrazolo[3,4-b]pyridin-3-yl]-5,5-dimethyl-4-(3,3,3-trifluoropropoxy)-5,7-dihydro-6H-pyrrolo[2,3-d]pyrimidin-6-one]: the IC50 in the assay with aorta rings (Oryctolagus cuniculus) is 10000 nM; in assay [1], 840 nM.

Consider `CC1(C)C(=O)Nc2nc(-c3nn(Cc4cccc(F)c4F)c4ncc(F)cc34)nc(O)c21` [Example 116, 2-[1-(2,3-Difluorobenzyl)-5-fluoro-1H-pyrazolo[3,4-b]pyridin-3-yl]-4-hydroxy-5,5-dimethyl-5,7-dihydro-6H-pyrrolo[2,3-d]pyrimidin-6-one], for which, in assay [1], the IC50 was 83 nM. In assay [2], the “MEC (minimal effective concentration)” value turned out to be 0.03 μm.

What is called IC50 is the concentration at which inhibition is half-maximal. Low values mean greater potency, high ones weaker potency.
